The species entered for data set [1] is Canis familiaris. The experiment in a line: Antiarrhythmic activity in mongrel dog Harris two-stage coronary ligation model assessed as reduction in ectopic beats measured as duration of action at MED by electrocardiographic analysis. It counts as functional, Canis lupus familiaris, Heart.
The species named for data set [2] is Canis familiaris. The experiment in a line: Antiarrhythmic activity in mongrel dog Harris two-stage coronary ligation model assessed as reduction in ectopic beats by electrocardiographic analysis. It counts as functional. The following applies: Canis lupus familiaris, Heart; for minimal effective dose: read-out: MED.
The subject of data set [3] is Canis familiaris. The experiment in a line: Antiarrhythmic activity in iv dosed mongrel dog assessed as reduction in ouabain-induced ventricular arrhythmia by electrocardiographic analysis. It counts as functional. The following applies: Canis lupus familiaris, Heart; for minimal effective dose: read-out: MED.
The subject of data set [4] is Canis familiaris. The experiment in a line: Antiarrhythmic activity in iv dosed mongrel dog assessed as reduction in ouabain-induced ventricular arrhythmia measured as duration of action at MED by electrocardiographic analysis. It counts as functional, Canis lupus familiaris, Heart.
The test system of the next data set is Heart. The experiment in a line: Antiarrhythmic activity in rabbit heart assessed as reduction in aconitine-induced ventricular arrhythmia at 40 mg/l after 30 mins by electrocardiographic analysis. It counts as functional, tissue-based. Particulars: Oryctolagus cuniculus.
The species entered for data set [5] is Canis familiaris. The experiment in a line: Toxicity in mongrel dog Harris two-stage coronary ligation model. It counts as organism-based, Canis lupus familiaris. The following applies: in vivo.

Calls of active or inactive are those of the source. The rule behind the calls is not given here. Bounds are passed on as bounds.

`CCN(CC)CCCN1CCC(O)(c2ccccc2)C(C(=O)c2ccccc2)C1` (stereo not drawn): the results for the Time in the data set filed under Canis familiaris [1] and in the data set on Canis familiaris [4] were 16 min and 32 min, respectively. Further, the minimal effective dose came to 7.5 mg/kg in the data set listed under Canis familiaris [2] and 12.5 mg/kg in the data set with Canis familiaris [3].

For `O=C(c1ccccc1)C1CN(CCCN2CCCCC2)CCC1(O)c1ccccc1` (stereo not drawn), the outcome in the data set listed under Canis familiaris [2] was inactive. Further, in the data set on Heart, the result was Active. For the same molecule, the minimal effective dose in the data set on Canis familiaris [3] turned out to be 10 mg/kg. The Time in the data set with Canis familiaris [4] worked out at 15 min.

`Br.CN(C)CCCN1CC=C2C(=C(c3ccccc3)c3ccccc32)C1.O`: the outcome in the data set filed under Canis familiaris [2] was inactive. Besides, the outcome with Heart was Active. Further, the minimal effective dose with Canis familiaris [3] stood at 15 mg/kg. Besides, the Time with Canis familiaris [4] was 40 min.

In the case of `Br.CCN(CC)CCCN1CC=C2C(=C(c3ccccc3)c3ccccc32)C1.O`, the Time in the data set listed under Canis familiaris [1] is listed as 10 min; in the data set with Canis familiaris [4] it was 35 min. Moreover, the minimal effective dose in the data set listed under Canis familiaris [2] was found to be 15 mg/kg; with Canis familiaris [3], 20 mg/kg. The result with Heart was Active.

Take `Br.C1=C2C(=C(c3ccccc3)c3ccccc32)CN(CCCN2CCCCC2)C1.O`: the Time amounted to 12 min in the data set filed under Canis familiaris [1] and 35 min in the data set with Canis familiaris [4]. Besides, the minimal effective dose in the data set listed under Canis familiaris [2] worked out at 7.5 mg/kg; with Canis familiaris [3] it was 10 mg/kg. For the same molecule, in the data set with Heart, the outcome was Active.

As for `Br.C1=C2C(=C(c3ccccc3)c3ccccc32)CN(Cc2ccccc2)C1`, in the data set filed under Canis familiaris [2], the result was inactive. The outcome with Heart was Active. Moreover, in the data set with Canis familiaris [3], the minimal effective dose stood at 15 mg/kg. Further, in the data set on Canis familiaris [4], the Time is recorded as 17 min.

Turning to `CN(C)CCCN1CCC(O)(c2ccccc2)C(C(=O)c2ccccc2)C1` (stereo not drawn), the result in the data set on Heart was Active. The outcome in the data set with Canis familiaris [3] was inactive.

As for `CN(C)CCN1CCC(O)(c2ccccc2)C(C(=O)c2ccccc2)C1` (stereo not drawn), the result in the data set with Heart was Active. The outcome in the data set on Canis familiaris [3] was inactive.

Take `CN(C)CCCN1CC[C@H]2c3ccccc3[C@@H](c3ccccc3)[C@H]2C1.Cl.O` (relative stereo): the Time in the data set listed under Canis familiaris [1] amounted to 17.5 min; in the data set on Canis familiaris [4], 15 min. Further, the minimal effective dose in the data set listed under Canis familiaris [2] and with Canis familiaris [3] was 10 mg/kg each time. Moreover, in the data set on Heart, the outcome was Active.

Consider `CCN(CC)CCCN1CC[C@H]2c3ccccc3[C@@H](c3ccccc3)[C@H]2C1.Cl.O` (relative stereo), for which the Time in the data set filed under Canis familiaris [1] amounted to 10 min; with Canis familiaris [4] it was 15 min. The minimal effective dose in the data set listed under Canis familiaris [2] came to 12.5 mg/kg; in the data set with Canis familiaris [3], 20 mg/kg. In the data set on Heart, the result was Active.

Regarding `Cl.O.c1ccc([C@@H]2c3ccccc3[C@@H]3CCN(CCCN4CCCCC4)C[C@H]23)cc1` (relative stereo), in the data set listed under Canis familiaris [2], the outcome was inactive. The minimal effective dose with Canis familiaris [3] worked out at 15 mg/kg. In addition, the Time with Canis familiaris [4] worked out at 15 min.

Consider `Br.CCN(CC)CCN1CC[C@H]2c3ccccc3[C@@H](c3ccccc3)[C@H]2C1.O` (relative stereo), for which the values for the Time in the data set filed under Canis familiaris [1] and in the data set with Canis familiaris [4] were 12.5 min and 25 min, respectively. The figures for the minimal effective dose in the data set filed under Canis familiaris [2] and in the data set on Canis familiaris [3] were 12.5 mg/kg and 10 mg/kg, respectively. In the data set with Heart, the outcome was Active.

For `Br.CCN(CC)CCCN1CC[C@H]2c3ccccc3[C@H](c3ccccc3)[C@H]2C1.O` (relative stereo), the minimal effective dose in the data set on Canis familiaris [3] worked out at 15 mg/kg. Also, in the data set with Canis familiaris [4], the Time is on record as 19 min.

With `Cl.O.c1ccc([C@H]2c3ccccc3[C@@H]3CCN(CCCN4CCCCC4)C[C@H]23)cc1` (relative stereo), the result in the data set on Heart was Active. Besides, in the data set with Canis familiaris [3], the minimal effective dose is 10 mg/kg. For the same molecule, the Time with Canis familiaris [4] turned out to be 30 min. Besides, the Activity result in the data set filed under Canis familiaris [5] is listed as “Toxic”.

Consider `Br.CN(C)CCN1CC[C@H]2c3ccccc3[C@H](c3ccccc3)[C@H]2C1` (relative stereo), for which, in the data set filed under Canis familiaris [2], the result was inactive. Besides, the result in the data set with Heart was Active. In addition, the minimal effective dose with Canis familiaris [3] is 20 mg/kg. In addition, in the data set with Canis familiaris [4], the Time was found to be 17 min.

For `Br.c1ccc([C@@H]2c3ccccc3[C@@H]3CCNC[C@H]23)cc1` (relative stereo), the Time is given as 12.5 min in the data set listed under Canis familiaris [1] and 15 min in the data set with Canis familiaris [4]. For the same molecule, the minimal effective dose worked out at 15 mg/kg in the data set filed under Canis familiaris [2] and 17.5 mg/kg with Canis familiaris [3]. Also, the outcome in the data set on Heart was Active.

Turning to `CCN(CC)CCN1CC[C@H]2c3ccccc3[C@H](c3ccccc3)[C@H]2C1` (relative stereo), the outcome in the data set on Heart was Active. For the same molecule, the result with Canis familiaris [3] was inactive.

Turning to `CN(C)CCCN1CC[C@H]2c3ccccc3[C@H](c3ccccc3)[C@H]2C1` (relative stereo), in the data set with Heart, the result was Active. In addition, in the data set on Canis familiaris [3], the outcome was inactive.

With `c1ccc([C@H]2c3ccccc3[C@@H]3CCNC[C@H]23)cc1` (relative stereo), the outcome with Heart was Active. Further, in the data set on Canis familiaris [3], the outcome was inactive.

Take `CC(C)N(CCC(C(N)=O)(c1ccccc1)c1ccccn1)C(C)C.O=P(O)(O)O` (stereo not drawn) [DISOPYRAMIDE PHOSPHATE]: the Time is 23 min in the data set filed under Canis familiaris [1] and over 30 min with Canis familiaris [4]. In addition, the minimal effective dose in the data set listed under Canis familiaris [2] is 7 mg/kg; in the data set with Canis familiaris [3], 6.6 mg/kg.

Regarding `C=C[C@H]1CN2CC[C@H]1C[C@@H]2[C@@H](O)c1ccnc2ccc(OC)cc12` [QUINIDINE], the figures for the Time in the data set listed under Canis familiaris [1] and with Canis familiaris [4] were 23 min and over 30 min, respectively. The minimal effective dose came to 12.8 mg/kg in the data set filed under Canis familiaris [2] and 7.5 mg/kg in the data set with Canis familiaris [3]. The result in the data set with Heart was Active.

For the origin of these results see ChEMBL document CHEMBL3244079, “Synthesis and antiarrhythmic activity of 2-dialkylaminoalkyl-9-phenyl-1H-indeno[2,1-c]pyridine derivatives” (J Med Chem, 1978).
